Laboratory results published in patent publication US7105534B2, “Imidazo[1,2-α]pyridine ether compounds as ion channel modulators” (Cardiome Pharma Corp., priority 2000, dated 2006).

Experiments:
[1] = test system: anesthetized rats subjected to coronary artery occlusion; test: Antiarrhythmic efficacy: arrhythmias after coronary artery occlusion in anesthetized rats; format: in vivo, rat; settings: i.v. infusion
Excerpt: Antiarrhythmic efficacy may be assessed by investigating the effect of a compound on the incidence of cardiac arrhythmias in anesthetized rats subjected to coronary artery occlusion. Rats weighing 200–300 gms are subjected to preparative surgery and assigned to groups in a random block design. In each case, the animal is anesthetized with pentobarbital during surgical preparation. The left carotid artery is cannulated for measurement of mean arterial blood pressure and withdrawal of blood samples. The left jugular vein is also cannulated for injection of drugs. The thoracic cavity is opened and a polyethylene occluder loosely placed around the left anterior descending coronary artery. The thoracic cavity is then closed. An ECG is recorded by insertion of electrodes placed along the anatomical axis of the heart. […] ECG, arrhythmias, blood pressure, heart rate and mortality are monitored for 15 minutes after occlusion. Arrhythmias are recorded as ventricular tachycardia (VT) and ventricular fibrillation (VF) and scored according to Curtis, M. J. and Walker, M. J. A., Cardiovasc. […]
Occlusion is associated with R-wave height and “S-T” segment elevation; and an occluded zone (measured after death by cardiogreen dye perfusion) in the range of 25%–50% of total left-ventricular weight.
Results of the test compounds may be expressed as values of a given infusion rate in micromol/kg/min. […]

[2] = biological target: T1, Kv4.2 (Homo sapiens, UniProt Q9NZV8); test: Patch-clamp inhibition of cloned ion channel current in transfected HEK cells: Kv4.2; format: cell-based; settings: integrated current, -80 mV to +60 mV
T1 construct: expressed in transfected cells; host or cells: HEK cells, transient transfection, vector pCDNA3
T1 sequence (Q9NZV8 1-630): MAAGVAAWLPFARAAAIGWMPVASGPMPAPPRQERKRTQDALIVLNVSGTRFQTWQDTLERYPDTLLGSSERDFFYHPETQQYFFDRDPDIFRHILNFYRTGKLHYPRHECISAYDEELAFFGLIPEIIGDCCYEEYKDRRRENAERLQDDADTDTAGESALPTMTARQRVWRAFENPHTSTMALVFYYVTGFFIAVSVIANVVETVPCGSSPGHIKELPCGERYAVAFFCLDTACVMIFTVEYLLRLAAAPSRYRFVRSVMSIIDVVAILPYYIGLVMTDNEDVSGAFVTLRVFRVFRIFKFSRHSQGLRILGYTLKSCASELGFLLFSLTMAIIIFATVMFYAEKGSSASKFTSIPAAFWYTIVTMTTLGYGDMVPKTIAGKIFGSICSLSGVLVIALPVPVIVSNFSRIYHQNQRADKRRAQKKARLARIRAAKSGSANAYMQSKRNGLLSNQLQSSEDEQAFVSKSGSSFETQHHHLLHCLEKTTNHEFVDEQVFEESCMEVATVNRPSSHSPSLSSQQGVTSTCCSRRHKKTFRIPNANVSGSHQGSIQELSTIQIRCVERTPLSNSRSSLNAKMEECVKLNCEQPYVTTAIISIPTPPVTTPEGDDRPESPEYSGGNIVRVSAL
Description: The relevant cloned ion channels (e.g. cardiac hH1, Kv1.4, Kv1.5, Kv4.2, Kv2.1, HERG etc.) are studied by transient transfection into HEK cells using the mammalian expression vector pCDNA3. Transfections for each channel type are carried out separately to allow individual study of the ion channel of interest. Cells expressing channel protein are detected by cotransfecting cells with the vector pHook-1 (Invitrogen, San Diego, Calif., USA). […] Equal concentrations of individual channel and pHook DNA are incubated with 10× concentration of lipofectAce in Modified Eagle's Medium (MEM, Canadian Life Technologies) and incubated with parent HEK cells plated on 25 mm culture dishes. After 3–4 hours the solution is replaced with a standard culture medium plus 20% fetal bovine serum and 1% antimycotic. Transfected cells are maintained at 37C in an air/5% CO2 incubator in 25 mm Petri dishes plated on glass coverslips for 24–48 hours to allow channel expression to occur. 20 min prior to experiments, cells are treated with beads coated with phOX. After 15 min, excess beads are […] off with cell culture medium and cells which had beads stuck to them are used for electrophysiological tests.
For whole-cell recording the control pipette filling solution contained (in mM): KCl, 130; EGTA, 5; MgCl2, 1; HEPES, 10; Na2ATP, 4; GTP, 0.1; and is adjusted to pH 7.2 with KOH. The control bath solution contained (in mM): NaCl, 135; KCI, 5; sodium acetate, 2.8; MgCl2, 1; HEPES, 10; CaCl2, 1; and is adjusted to pH 7.4 with NaOH. The test ion channel modulating compound is dissolved to 10 mM stock solutions in water and used at concentrations between 0.5 and 100 μM.
Coverslips containing cells are removed from the incubator before experiments and placed in a superfusion chamber (volume 250 μl) containing the control bath solution at 22C to 23C. All recordings are made via the variations of the patch-clamp technique, using an Axopatch 200A amplifier (Axon Instruments, CA). Patch electrodes are pulled from thin-walled borosilicate glass (World Precision Instruments; FL) on a horizontal micropipette puller, fire-polished, and filled with appropriate solutions. Electrodes had resistances of […] when filled with control filling solution. Analog capacity compensation is used in all whole cell measurements. In some experiments, leak subtraction is applied to data. Membrane potentials have not been corrected for any junctional potentials that arose between the pipette and bath solution. Data are filtered at 5 to 10 kHz before digitization and stored on a microcomputer for later analysis using the pClamp6 software (Axon Instruments, Foster City, Calif.). Due to the high level of expression of channel cDNA's in HEK cells, there is no need for signal averaging. The average cell capacitance is quite small, and the absence of ionic current at negative membrane potentials allowed faithful leak subtraction of data.
The concentration-response curves for changes in peak and steady-state current produced by the test compound are computer-fitted to the Hill equation: f=1−1/[1+([…])^n] [1]
where f is the fractional current (f=Idrug/Icontrol) at drug concentration [D]; IC50 is the concentration producing half-maximal inhibition and n is the Hill coefficient.
Compounds of the present invention may be evaluated by this method. […] Block is determined from the decrease in peak hH1 Na^+ current, or in steady-state Kv1.5 and integrated Kv4.2 current in the presence of drug. To record Na^+ current, cells are depolarized from the holding potential of −100 mV to a voltage of −30 mV for 10 ms to fully open and inactivate the channel. To record Kv1.5 and Kv4.2 current, cells are depolarized from the holding potential of −80 mV to a voltage of +60 mV for 200 ms to fully open the channel. Currents are recorded in the steady-state at a range of drug concentrations during stimulation every 4 s. […]

[3] = biological target: T2, HERG (Homo sapiens, UniProt Q12809); test: Patch-clamp inhibition of cloned ion channel current in transfected HEK cells: HERG; format: cell-based; settings: whole-cell patch clamp
T2 construct: expressed in transfected cells; host or cells: HEK cells, transient transfection, vector pCDNA3
T2 sequence (Q12809 whole entry): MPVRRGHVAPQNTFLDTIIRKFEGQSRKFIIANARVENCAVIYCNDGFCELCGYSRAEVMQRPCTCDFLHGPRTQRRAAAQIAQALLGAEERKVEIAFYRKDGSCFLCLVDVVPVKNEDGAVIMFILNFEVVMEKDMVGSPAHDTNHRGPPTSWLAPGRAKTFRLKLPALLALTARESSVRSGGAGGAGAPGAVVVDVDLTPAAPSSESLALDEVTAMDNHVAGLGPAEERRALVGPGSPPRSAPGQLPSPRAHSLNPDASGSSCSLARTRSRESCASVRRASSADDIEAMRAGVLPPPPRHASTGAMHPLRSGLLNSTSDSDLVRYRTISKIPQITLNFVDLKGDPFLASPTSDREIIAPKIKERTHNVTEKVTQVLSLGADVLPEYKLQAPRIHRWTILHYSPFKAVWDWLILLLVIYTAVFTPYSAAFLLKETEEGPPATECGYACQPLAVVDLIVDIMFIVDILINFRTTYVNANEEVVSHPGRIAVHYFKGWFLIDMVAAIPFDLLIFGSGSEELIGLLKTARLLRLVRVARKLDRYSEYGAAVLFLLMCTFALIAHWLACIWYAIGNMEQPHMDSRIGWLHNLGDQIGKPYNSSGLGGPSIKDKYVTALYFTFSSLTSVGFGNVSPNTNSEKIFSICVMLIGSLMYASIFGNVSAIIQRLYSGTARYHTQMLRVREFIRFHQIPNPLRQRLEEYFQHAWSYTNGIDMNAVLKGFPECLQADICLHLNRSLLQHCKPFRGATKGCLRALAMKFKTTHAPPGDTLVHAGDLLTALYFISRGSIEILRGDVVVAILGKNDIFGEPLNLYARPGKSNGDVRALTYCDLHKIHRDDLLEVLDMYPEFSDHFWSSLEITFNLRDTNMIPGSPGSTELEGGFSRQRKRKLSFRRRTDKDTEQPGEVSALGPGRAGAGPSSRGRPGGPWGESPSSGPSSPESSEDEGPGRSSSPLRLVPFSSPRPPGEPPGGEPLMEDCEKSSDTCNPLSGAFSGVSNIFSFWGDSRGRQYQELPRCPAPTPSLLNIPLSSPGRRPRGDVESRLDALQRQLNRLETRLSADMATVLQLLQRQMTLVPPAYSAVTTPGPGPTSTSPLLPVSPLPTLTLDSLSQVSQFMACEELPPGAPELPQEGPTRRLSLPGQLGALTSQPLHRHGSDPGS
Outline: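 HERG channels were expressed by transient lipofection of HEK cells with pCDNA3 plus the pHook-1 marker, and bead-tagged cells were selected after 24–48 hours. Whole-cell currents were recorded at 22C to 23C with an Axopatch 200A in KCl pipette and NaCl bath solutions. Compound was applied at 0.5 to 100 μM, and IC50 came from Hill equation fits.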

## COc1ccc(CCCOc2cccn3cc(C)nc23)cc1OC [Compound 3, 8-[3-(3,4-DIMETHOXYPHENYL)PROPOXY]-2-METHYLIMIDAZO[1,2-α]PYRIDINE MONOHYDROCHLORDE]
[1]
  ED50AA (infusion rate reducing arrhythmia score to 50% of vehicle-treated animals): 5 µmol/kg/min
[2]
  IC50: 13 µM
[3]
  IC50: 0.6 µM
